Laboratory results: patent US10131660B2, “Tetrahydro-azepinoquinolines as agonists of the 5-HT2C receptor” (Sunnylife Pharma, Inc., priority 2014, dated 2018)

These compounds were tested against T1, human 5-HT2C receptor (Homo sapiens, UniProt P28335) (assay: Functional calcium mobilization (FLIPR) assay, 5-HT2C). Conditions: CHO cells stably expressing human 5-HT2C receptor; agonist-stimulated Ca2+ flux.
T1 construct: host or cells: CHO cells, stably expressing
T1 sequence (P28335 33-458): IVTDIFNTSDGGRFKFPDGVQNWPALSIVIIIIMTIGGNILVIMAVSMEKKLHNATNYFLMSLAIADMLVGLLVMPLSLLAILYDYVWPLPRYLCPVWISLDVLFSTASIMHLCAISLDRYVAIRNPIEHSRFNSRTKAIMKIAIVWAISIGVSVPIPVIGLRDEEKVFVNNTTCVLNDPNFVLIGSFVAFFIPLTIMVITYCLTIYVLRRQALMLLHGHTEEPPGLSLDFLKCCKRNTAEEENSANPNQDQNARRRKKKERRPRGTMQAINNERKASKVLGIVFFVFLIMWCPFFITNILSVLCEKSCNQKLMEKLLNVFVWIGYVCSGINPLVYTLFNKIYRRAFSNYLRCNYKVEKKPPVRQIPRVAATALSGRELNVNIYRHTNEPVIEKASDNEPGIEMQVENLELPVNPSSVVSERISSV
Type: cell-based
Procedure: (a) Cell Culture for the Human 5-HT2A, Human 5-HT2B, and Human 5-HT2C Receptors:
CHO cells stably expressing the human 5-HT2A, human 5-HT2B, and human 5-HT2C receptors were purchased from PerkinElmer (Waltham, Mass.). Cells were grown in advance DMEM/F12, 1% dialyzed fetal bovine serum, 2 mM L-glutamine, 100 units/mL penicillin, 1 mg/mL streptomycin, and 0.4 mg/ml Geneticin at 37° C. in 5% CO2 atmosphere.
(b) Calcium Mobilization Assays:
Cells were seeded in black clear-bottom 384-well plates at a density of 10,000 cells/well and incubated overnight at 37° C. in 5% CO2/95% atmosphere. After removing medium, cells were loaded with modified HBSS buffer (137.9 mM NaCl, 5.3 mM KCl, 5.5 mM glucose, 20 mM Hepes, 0.49 mM MgCl2, 1.26 mM CaCl2, 0.41 mM MgSO4, 0.33 mM Na2HPO4, and 0.44 mM KH2PO4) containing the FLIPR Calcium 4 dye (Molecular Devices, CA) and probenecid ([…]) and incubated at 37° C. for 60 min, according to the manufacturer's instructions. Compounds were diluted in HBSS buffer containing 6% DMSO as six folds. Final DMSO concentration in the assay was 1%. The dose-response of agonist-stimulated Ca^2+ flux was measured on a Fluorometric Imaging Plate Reader (FLIPR Tetra) (Molecular Devices, CA).
Data were analyzed by nonlinear least squares curve fitting using GraphPad Prism 5.0 software (GraphPad Software, CA). Agonist stimulation in FLIPR assay was fitted to sigmoidal dose response curves using the equation Y=Bottom+(Top-Bottom)/(1+10^((Log EC50−X)*Hill Slope)), where X is the logarithm of concentration of compounds. Y is the fluorescent response, EC50 is the concentration of compound producing 50% of maximum response. Maximum responses (Emax) of compounds were calculated based on % of stimulation relative to the response of α-methyl-5HT (100%). EC50's are representative of two or three separate experiments performed in triplicates.

SMILES	EC50 [nM]
Fc1cc(F)c2cc3c(nc2c1C1CC1)CCNCC3	< 5
Fc1cc(C2CC2)c2nc3c(cc2c1F)CCNCC3	< 5
Clc1ccc(C2CC2)c2nc3c(cc12)CCNCC3	< 1
Cc1c2c(nc3c(OC4CCCCC4)ccc(F)c13)CCNCC2	< 10
Fc1cc(C2CC2)c2nc3c(cc2c1Cl)CCNCC3	< 5
Cc1c2c(nc3c(C4CC4)c(F)cc(F)c13)CCNCC2	< 5
Clc1ccc(OC2CCCCC2)c2cc3c(nc12)CCNCC3	< 50
Cc1c2c(nc3c(Cl)ccc(OC4CCCCC4)c13)CCNCC2	< 5
Cc1c2c(nc3c(OC4CCCCCC4)ccc(F)c13)CCNCC2	< 10
Cc1c2c(nc3c(C4CC4)ccc(Cl)c13)CCNCC2	< 15
Fc1cccc(Oc2ccc(Cl)c3nc4c(cc23)CCNCC4)c1	< 20
